Assay: HILIC, Waters ACQUITY UPLC BEH HILIC, 150 × 2.1 mm, 1.7 µm, 40 °C, 0.6 mL/min, estimated dead time 0.55 min; A: water + 0.1% formic acid + 20 mM ammonium formate, pH 3.5; B: acetonitrile + 0.1% formic acid, pH 3; gradient (min/%B) 0/95 0.1/95 4.6/80 5.5/50 7.0/50 7.1/95 7.2/95 7.3/95 7.4/95 7.5/95 7.6/95 7.7/95 7.8/95 12.50/95 12.65/95
Details: stereoisomer not certain

Row | SMILES | LC retention time [min]
1 | CN1CC(=O)NC1=N [Creatinine] | 2.51
2 | NC(=O)CCC(N)C(=O)O (configuration not stated) [Glutamine] | 5.06
3 | C[N+](C)(C)CCCCC(N)C(=O)[O-] [N6,N6,N6-Trimethyl-L-lysine] | 6.16
4 | CC(=O)Nc1ccn(C2OC(CO)C(O)C2O)c(=O)n1 (configuration not stated) [N4-Acetylcytidine] | 1.27
5 | NCCc1ccccc1 [Phenylethylamine] | 2.91
6 | CC(CCC(=O)NCCS(=O)(=O)O)C1CCC2C3C(O)CC4CC(O)CCC4(C)C3CCC12C (configuration not stated) [Tauroursodeoxycholic acid] | 1.75
7 | NCCS(=O)(=O)O [Taurine] | 2.61
8 | Cn1cnc2c(ncn2C2OC(CO)C(O)C2O)c1=O (configuration not stated) [N1-Methylinosine] | 1.44
9 | Cn1cnc2nc(N)[nH]c(=O)c21 [7-Methylguanine] | 2.19
10 | NC(CCCCn1c(C=O)ccc1CO)C(=O)O (configuration not stated) [Pyralline] | 4.28
11 | CC(=O)NCCCN1CCCC1=O [N-Acetylisoputreanine-gamma-lactam] | 1.83
12 | CCCCCCCCCCCCCCCCCC(=O)OC(CC(=O)[O-])C[N+](C)(C)C (configuration not stated) [Stearoylcarnitine CAR(18:0)] | 3.74
13 | CCCCCC=CC(=O)OC(CC(=O)[O-])C[N+](C)(C)C (configuration not stated) [2-Octenoylcarnitine CAR(8:1)] | 4.2
14 | O=C(O)C1CCCCN1 (configuration not stated) [Pipecolic acid] | 4.48
15 | NCCc1ccc(O)c(OS(=O)(=O)O)c1 [Dopamine-3-O-sulfate] | 1.07
16 | O=c1[nH]cnc2nc[nH]c12 [Hypoxanthine] | 1.59
17 | C=CC1CN2CCC1CC2C(O)c1ccnc2ccc(OC)cc12 (configuration not stated) [Quinine] | 3.03
18 | CN1CCCCC1C(=O)O (configuration not stated) | 4.59
19 | O=C(O)C1CCCN1 (configuration not stated) [Proline] | 4.46
20 | CC(=O)C[N+](C)(C)C [Trimethylaminoacetone] | 3.51
21 | NCCc1ccc(OS(=O)(=O)O)c(O)c1 [Dopamine-4-O-sulfate] | 1.07

Row | SMILES | LC retention time [min]
22 | C[N+]1(C)CCCC1C(=O)[O-] (configuration not stated) [Proline Betaine] | 4.91
23 | CC=C(C)C(=O)OC(CC(=O)[O-])C[N+](C)(C)C (configuration not stated) [Tiglylcarnitine CAR(5:1)] | 4.54
24 | NC(=O)c1cccnc1 [Niacinamide] | 1.07
25 | O=C1CCC(c2cccnc2)N1 (configuration not stated) [Norcotinine] | 1.6
26 | CC(=O)NC(CCCCN)C(=O)O [N-alpha-acetyl-L-lysine] | 5.44
27 | CN1C(=O)CCC1c1cccnc1 (configuration not stated) [Cotinine] | 1.4
28 | C[N+](C)(C)CC(=O)[O-] [Betaine] | 4.78
29 | O=c1[nH]c(=O)c2[nH]cnc2[nH]1 [Xanthine] | 1.15
30 | NC(=O)c1ccc[n+]([O-])c1 [Nicotinamide N-oxide] | 2.02
31 | C[n+]1cccc(C(=O)[O-])c1 [Trigonelline] | 4.85
32 | CC(=O)NCCCNCCCCNCCCNC(C)=O [N1,N12-Diacetylspermine] | 6.1
33 | Nc1nc2nc[nH]c2c(=O)[nH]1 [Guanine] | 2.17
34 | CC(=O)NCCCCN [N-Acetylputrescine] | 4.4
35 | C[N+](C)(C)CCO [Choline] | 3.97
36 | O=c1[nH]cnc2c1ncn2C1OC(CO)C(O)C1O (configuration not stated) [Inosine] | 1.61
37 | Cn1cncc1CC(N)C(=O)O (configuration not stated) [3-Methylhistidine] | 6.09
38 | Nc1c(O)cccc1C(=O)O [3-Hydroxyanthranilic acid] | 0.69
39 | OCC1OC(OC2(CO)OC(CO)C(O)C2O)C(O)C(O)C1O (configuration not stated) [Sucrose] | 2.27
40 | NCCc1c[nH]c2ccccc12 [Tryptamine] | 2.79
41 | Cn1c(=O)[nH]c2ncn(C)c2c1=O [Paraxanthine] | 0.948
42 | Cn1ccc(=O)c(C(N)=O)c1 [N1-methyl-4-pyridone-3-carboxamide] | 1.5

Source: the RepoRT retention time repository
